In patent publication US20100041089A1, “IMPROVED METHOD FOR DETECTING CHEMICAL […]” (priority 2006, published 2010):

Test system: yeast genes (expressed mRNA)
Assay: DNA chip measurement of expressed mRNA of yeast genes after culture with a toxic chemical substance
Format: cell-based, Saccharomyces cerevisiae S288C
Protocol: Yeast (Saccharomyces cerevisiae S288C (a SUC2mal mel gap2 CUP1)) were cultured at 25° C. on YPD medium (yeast extract 1%, polypeptone 2%, glucose 2%). One of toxic chemical substances was added to the cell at logarithmic growth phase, and the cell was further cultured for two hours. Cell was cultured without any chemical substance in the same condition, and was used as a control. Concentrations of the chemical substances were defined to inhibit the growth of the yeast but not lead to death.
After the completion of cultivation, the culture was centrifuged to collect the cells. To the cells, sodium acetate buffer (50 mM sodium acetate, 10 mM EDTA, 1% SDS) was added, and the mixture was shaken at 65° C. for five minutes, followed by returning to room temperature, and obtaining the supernatant, which procedure was repeated two times. To the supernatant, ½ amount of a solution of phenol/chloroform (1:1) was added, and the mixture was centrifuged to give a supernatant, an equal amount of chloroform was added, and the mixture was centrifuged to give a supernatant. To the supernatant, an equal amount of isopropanol containing 0.3 M sodium acetate was added, and the mixture was allowed to stand at room temperature for 30 minutes, after which the mixture was centrifuged to give sediment of the whole RNAs. Seventy % ethanol was added to the sediment, and the mixture was again centrifuged to give sediment, which was then dried and dissolved in water. mRNA was isolated from the whole RNAs as followings. In view of the fact that a poly A chain is attached to the 3′ terminus of mRNA, a polynucleotide having a poly T structure which was immobilized on the surface of latex beads was used to trap the mRNA, and then the mRNA was washed and eluted with spine column (Oligotex-dT30<Super>mRNA Purification Kit, Takara). Reverse transcription of the mRNA was conducted with a reverse transcriptase (Super Script II Reverse Transcriptase; catalogue No. 18064-014, GibcoBRL) using fluorescence-labeled nucleotides to give cDNAs that were introduced with Cy3-dUTP or Cy5-dUTP during the reverse transcription.
The labeled cDNAs were dissolved in TE buffer (10 mM Tris-HCl/1 mM EDTA, pH 8.0), and the solution was dropped on the DNA chip containing the whole genes of yeast (DNA Chip Research Inc. Japan) so that the cDNAs were hybridized on the DNA chip at 65° C. for over 12 hours. The fluoresces intensity of the DNA chip was read with a scanner, and the ratio relative to the fluorescence intensity resulting from the absence of chemical substance was estimated as the following, which is shown in Tables 1 to 9.
In the Tables, “Intensity” indicated in the rightmost column is a value of the level of expressed mRNA of each gene in control cells as divided by the average level of the expressions of the whole genes. A gene of which mRNA level is lower in control, and is higher in cases of addition of chemical substance, is especially useful in the detection of toxic substances.
Here, when a ratio of an amount of mRNA expressed in the presence of the chemical substance to an amount of mRNA expressed in the absence of the chemical substance is two or more, then it is considered significant.

## Oc1cc(Cl)c(Cl)cc1Cl [(6), 2,4,5-Trichlorophenol]
Yeast gene YAL053W, cultured two hours with substance
  The level of expressed mRNA in the presence of chemical substance/The level of expressed mRNA in the absence of chemical substance: 1.1
Yeast gene YAR028W, cultured two hours with substance
  The level of expressed mRNA in the presence of chemical substance/The level of expressed mRNA in the absence of chemical substance: 3.3
Yeast gene YBL043W
  The level of expressed mRNA in the presence of chemical substance/The level of expressed mRNA in the absence of chemical substance: 26.9
Yeast gene YBL048W, cultured two hours with substance
  The level of expressed mRNA in the presence of chemical substance/The level of expressed mRNA in the absence of chemical substance: 2.0
Yeast gene YBL107C, cultured two hours with substance
  The level of expressed mRNA in the presence of chemical substance/The level of expressed mRNA in the absence of chemical substance: 1.1
Yeast gene YBR026C
  The level of expressed mRNA in the presence of chemical substance/The level of expressed mRNA in the absence of chemical substance: 0.1
Yeast gene YBR072W (stress protein genes)
  The level of expressed mRNA in the presence of chemical substance/The level of expressed mRNA in the absence of chemical substance: 32.2
Yeast gene YBR145W
  The level of expressed mRNA in the presence of chemical substance/The level of expressed mRNA in the absence of chemical substance: 11.5
Yeast gene YBR145W (detoxification protein gene)
  The level of expressed mRNA in the presence of chemical substance/The level of expressed mRNA in the absence of chemical substance: 11.5
Yeast gene YBR145W, cultured for two hours with substance
  The level of expressed mRNA in the presence of chemical substance/The level of expressed mRNA in the absence of chemical substance: 11.5
Yeast gene YBR169C (stress protein genes)
  The level of expressed mRNA in the presence of chemical substance/The level of expressed mRNA in the absence of chemical substance: 4.9
Yeast gene YDL072C, cultured two hours with substance
  The level of expressed mRNA in the presence of chemical substance/The level of expressed mRNA in the absence of chemical substance: 1.5
Yeast gene YDL204W, cultured two hours with substance
  The level of expressed mRNA in the presence of chemical substance/The level of expressed mRNA in the absence of chemical substance: 5.6
Yeast gene YDL206W (transport facilitation protein genes)
  The level of expressed mRNA in the presence of chemical substance/The level of expressed mRNA in the absence of chemical substance: 5.7
Yeast gene YDL222C, cultured two hours with substance
  The level of expressed mRNA in the presence of chemical substance/The level of expressed mRNA in the absence of chemical substance: 1.4
Yeast gene YDR031W, cultured two hours with substance
  The level of expressed mRNA in the presence of chemical substance/The level of expressed mRNA in the absence of chemical substance: 3.6
Yeast gene YDR033W (stress protein genes)
  The level of expressed mRNA in the presence of chemical substance/The level of expressed mRNA in the absence of chemical substance: 6.7
Yeast gene YDR315C
  The level of expressed mRNA in the presence of chemical substance/The level of expressed mRNA in the absence of chemical substance: 9.4
Yeast gene YDR330W, cultured two hours with substance
  The level of expressed mRNA in the presence of chemical substance/The level of expressed mRNA in the absence of chemical substance: 2.3
Yeast gene YDR391C, cultured two hours with substance
  The level of expressed mRNA in the presence of chemical substance/The level of expressed mRNA in the absence of chemical substance: 2.8
Yeast gene YDR406W (transport facilitation protein gene)
  The level of expressed mRNA in the presence of chemical substance/The level of expressed mRNA in the absence of chemical substance: 5.9
Yeast gene YDR411C, cultured two hours with substance
  The level of expressed mRNA in the presence of chemical substance/The level of expressed mRNA in the absence of chemical substance: 0.8
Yeast gene YDR511W, cultured two hours with substance
  The level of expressed mRNA in the presence of chemical substance/The level of expressed mRNA in the absence of chemical substance: 2.0
Yeast gene YDR545W, cultured two hours with substance
  The level of expressed mRNA in the presence of chemical substance/The level of expressed mRNA in the absence of chemical substance: 1.0
Yeast gene YEL001C, cultured two hours with substance
  The level of expressed mRNA in the presence of chemical substance/The level of expressed mRNA in the absence of chemical substance: 1.3
Yeast gene YER004W, cultured two hours with substance
  The level of expressed mRNA in the presence of chemical substance/The level of expressed mRNA in the absence of chemical substance: 1.2
Yeast gene YER035W, cultured two hours with substance
  The level of expressed mRNA in the presence of chemical substance/The level of expressed mRNA in the absence of chemical substance: 0.9
Yeast gene YER079W, cultured two hours with substance
  The level of expressed mRNA in the presence of chemical substance/The level of expressed mRNA in the absence of chemical substance: 1.5
Yeast gene YER106W, cultured two hours with substance
  The level of expressed mRNA in the presence of chemical substance/The level of expressed mRNA in the absence of chemical substance: 1.1
Yeast gene YER158C, cultured two hours with substance
  The level of expressed mRNA in the presence of chemical substance/The level of expressed mRNA in the absence of chemical substance: 0.7
Yeast gene YER163C, cultured two hours with substance
  The level of expressed mRNA in the presence of chemical substance/The level of expressed mRNA in the absence of chemical substance: 2.0
Yeast gene YER175C, cultured two hours with substance
  The level of expressed mRNA in the presence of chemical substance/The level of expressed mRNA in the absence of chemical substance: 0.8
Yeast gene YFL006W, cultured two hours with substance
  The level of expressed mRNA in the presence of chemical substance/The level of expressed mRNA in the absence of chemical substance: 1.2
Yeast gene YFL010C, cultured two hours with substance
  The level of expressed mRNA in the presence of chemical substance/The level of expressed mRNA in the absence of chemical substance: 1.9
Yeast gene YFL014W, DNA repair protein genes, cultured two hours with substance
  The level of expressed mRNA in the presence of chemical substance/The level of expressed mRNA in the absence of chemical substance: 9.3
Yeast gene YFL024C, cultured two hours with substance
  The level of expressed mRNA in the presence of chemical substance/The level of expressed mRNA in the absence of chemical substance: 2.0
